Laboratory results taken from US20100298141A1, “SUBSTITUTED PYRIDINE N-OXIDE HERBICIDES” (E. I. DU PONT DE NEMOURS AND COMPANY, priority 2007, published 2010).

Legend:
[1] = system: Goosegrass; test: Test C pre-/postemergence test; assay type: in vivo, Eleusin indica
Method in brief: (§1)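 Seeds were planted and treated preemergence with test chemical in a non-phytotoxic solvent mixture containing surfactant. Postemergence applications of the same formulation went onto plants 2 to 18 cm tall (1- to 4-leaf stage). A dash marks no test result.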

[2] = system: Italian ryegrass; test: Test C pre-/postemergence test; assay type: in vivo, Lolium multiflorum
Method in brief: as §1

[3] = system: yellow nutsedge; test: Test C pre-/postemergence test; assay type: in vivo, Cyperus esculentus
Method in brief: as §1

[4] = system: soybean; test: Test C pre-/postemergence test; assay type: in vivo, Glycine max
Method in brief: as §1

[5] = system: crabgrass; test: Test A pre-/postemergence greenhouse test; assay type: in vivo, Digitaria sanguinalis; details: for Crabgrass, Large plant response rating: 0 to 100 scale
Method in brief: (§2)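 Visual injury ratings against untreated controls, taken roughly ten days after treatment in greenhouse. Plants were sprayed postemergence at one- to two-leaf stage (2–10 cm tall); at the same time, seeded loam/sand soil received a directed preemergence spray. Formulation: non-phytotoxic solvent mixture with surfactant.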

[6] = system: bermudagrass; test: Test C pre-/postemergence test; assay type: in vivo, Cynodon dactylon
Method in brief: as §1

[7] = system: crabgrass; test: Test C pre-/postemergence test; assay type: in vivo, Digitaria sanguinalis
Method in brief: as §1

[8] = system: velvetleaf; test: Test A pre-/postemergence greenhouse test; assay type: in vivo, Abutilon theophrasti; details: for Velvetleaf plant response rating: 0 to 100 scale
Method in brief: as §2

[9] = system: barnyardgrass; test: Test A pre-/postemergence greenhouse test; assay type: in vivo, Echinochloa crus-galli; details: for Barnyardgrass plant response rating: 0 to 100 scale
Method in brief: as §2

[10] = system: green foxtail; test: Test C pre-/postemergence test; assay type: in vivo, Setaria viridis
Method in brief: as §1

[11] = system: pigweed; test: Test C pre-/postemergence test; assay type: in vivo, Amaranthus retroflexus
Method in brief: as §1

[12] = system: barnyardgrass; test: Test C flooded paddy test; assay type: in vivo, Echinochloa crus-galli; details: Flood
Method in brief: (§3)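 In-water treatment: compound dosed into 3 cm flood over soil, water level unchanged throughout. Controls run alongside; visual assessment at day 13–15.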

[13] = system: duck salad; test: Test C flooded paddy test; assay type: in vivo, Heteranthera limosa; details: Flood
Method in brief: as §3

[14] = system: umbrella sedge; test: Test C flooded paddy test; assay type: in vivo, Cyperus difformis; details: Flood
Method in brief: as §3

[15] = system: johnsongrass; test: Test C pre-/postemergence test; assay type: in vivo, Sorghum halepense
Method in brief: as §1

[16] = system: corn; test: Test C pre-/postemergence test; assay type: in vivo, Zea mays
Method in brief: as §1

[17] = system: corn; test: Test A pre-/postemergence greenhouse test; assay type: in vivo, Zea mays; details: for Corn plant response rating: 0 to 100 scale
Method in brief: as §2

[18] = 62 g ai/ha, Preemergence, scale 0 to 100
[19] = 125 g ai/ha, preemergence, scale 0 (no effect) to 100 (complete control)
[20] = Preemergence, 31 g ai/ha, scale 0 to 100 (0 no effect, 100 complete control)
[21] = preemergence, 250 g ai/ha, scale 0 (no effect) to 100 (complete control)
[22] = Postemergence, 125 g ai/ha, 0 to 100 scale where 0 is no effect and 100 is complete control
[23] = Postemergence, 500 g ai/ha, 0 is no effect, 100 is complete control
[24] = Preemergence, 125 g ai/ha, 0 no effect, 100 complete control
[25] = Preemergence, 500 g ai/ha, 0 no effect, 100 complete control
[26] = 31 g ai/ha, scale 0 to 100 (0 no effect, 100 complete control)
[27] = 62 g ai/ha, scale 0 to 100 (0 no effect, 100 complete control)
[28] = 125 g ai/ha, scale 0 to 100, 0 no effect, 100 complete control, 13 to 15 days
[29] = 250 g ai/ha, scale 0 to 100, 0 no effect, 100 complete control, 13 to 15 days

**Q.** Which “Goosegrass plant response rating” value [1, 18] does the source give for CC(C)c1cc[n+]([O-])c([S+]([O-])Cc2c(C(F)(F)F)nn(C)c2OC(F)F)c1 (centres unmarked) [Compound 109] here?
**A.** 100

**Q.** And the “Goosegrass plant response rating” value [1, 19]?
**A.** 100

**Q.** And the “Plant response rating, Goosegrass” value [1, 20]?
**A.** 100

**Q.** What about the “Goosegrass plant response rating” value [1, 21] of the same molecule?
**A.** 100

**Q.** And the “Ryegrass, Italian plant response rating” value [2, 18]?
**A.** 0

**Q.** What about the “Ryegrass, Italian plant response rating” value [2, 19] of the same molecule?
**A.** 0

**Q.** And the “Plant response rating, Ryegrass, Italian” value [2, 20]?
**A.** 0

**Q.** And the “Ryegrass, Italian plant response rating” value [2, 21]?
**A.** 0

**Q.** What about the “Nutsedge, Yellow plant response rating” value [3, 18] of the same molecule?
**A.** 80

**Q.** And the “Nutsedge, Yellow plant response rating” value [3, 19]?
**A.** 98

**Q.** What about the “Plant response rating, Nutsedge, Yellow” value [3, 20] of the same molecule?
**A.** 80

**Q.** What about the “Nutsedge, Yellow plant response rating” value [3, 21] of the same molecule?
**A.** 100

**Q.** And the “Soybean plant response rating” value [4, 18]?
**A.** 50

**Q.** And the “Soybean plant response rating” value [4, 19]?
**A.** 85

**Q.** And the “Plant response rating, Soybean” value [4, 20]?
**A.** 45

**Q.** And the “Soybean plant response rating” value [4, 21]?
**A.** 95

**Q.** What about the “Plant response rating, Crabgrass, Large” value [5, 22] of the same molecule?
**A.** 60

**Q.** And the “Crabgrass, Large plant response rating” value [5, 23]?
**A.** 90

**Q.** What about the “Crabgrass, Large plant response rating” value [5, 24] of the same molecule?
**A.** 90

**Q.** And the “Crabgrass, Large plant response rating” value [5, 25]?
**A.** 100

**Q.** And the “Bermudagrass plant response rating” value ([6]; 62 g ai/ha, Preemergence, scale 0 to 100 (0 no effect, 100 complete control))?
**A.** 100

**Q.** And the “Bermudagrass plant response rating” value [6, 19]?
**A.** 100

**Q.** And the “Plant response rating, Bermudagrass” value [6, 20]?
**A.** 95

**Q.** What about the “Bermudagrass plant response rating” value [6, 21] of the same molecule?
**A.** 100

**Q.** And the “Crabgrass, Large plant response rating” value [7, 18]?
**A.** 100

**Q.** And the “Crabgrass, Large plant response rating” value [7, 19]?
**A.** 100

**Q.** And the “Plant response rating, Crabgrass, Large” value [7, 20]?
**A.** 80

**Q.** What about the “Crabgrass, Large plant response rating” value [7, 21] of the same molecule?
**A.** 100

**Q.** What about the “Plant response rating, Velvetleaf” value [8, 22] of the same molecule?
**A.** 60

**Q.** And the “Velvetleaf plant response rating” value [8, 23]?
**A.** 80

**Q.** What about the “Velvetleaf plant response rating” value [8, 24] of the same molecule?
**A.** 50

**Q.** What about the “Velvetleaf plant response rating” value [8, 25] of the same molecule?
**A.** 100

**Q.** What about the “Plant response rating, Barnyardgrass” value [9, 22] of the same molecule?
**A.** 80

**Q.** And the “Barnyardgrass plant response rating” value [9, 23]?
**A.** 90

**Q.** What about the “Barnyardgrass plant response rating” value [9, 24] of the same molecule?
**A.** 70

**Q.** And the “Barnyardgrass plant response rating” value [9, 25]?
**A.** 100

**Q.** And the “Foxtail, Green plant response rating” value [10, 18]?
**A.** 95

**Q.** What about the “Foxtail, Green plant response rating” value [10, 19] of the same molecule?
**A.** 100

**Q.** What about the “Plant response rating, Foxtail, Green” value [10, 20] of the same molecule?
**A.** 50

**Q.** What about the “Foxtail, Green plant response rating” value [10, 21] of the same molecule?
**A.** 100

**Q.** And the “Pigweed plant response rating” value [11, 18]?
**A.** 100

**Q.** What about the “Pigweed plant response rating” value [11, 19] of the same molecule?
**A.** 100

**Q.** And the “Plant response rating, Pigweed” value [11, 20]?
**A.** 100

**Q.** And the “Pigweed plant response rating” value [11, 21]?
**A.** 100

**Q.** And the “Plant response rating, Barnyardgrass” value [12, 26]?
**A.** 0

**Q.** What about the “Plant response rating, Barnyardgrass” value [12, 27] of the same molecule?
**A.** 20

**Q.** What about the “Plant response rating, Barnyardgrass” value [12, 28] of the same molecule?
**A.** 20

**Q.** And the “Plant response rating, Barnyardgrass” value [12, 29]?
**A.** 20

**Q.** What about the “Plant response rating, Ducksalad” value [13, 26] of the same molecule?
**A.** 0

**Q.** And the “Plant response rating, Ducksalad” value [13, 27]?
**A.** 40

**Q.** And the “Plant response rating, Ducksalad” value [13, 28]?
**A.** 45

**Q.** And the “Plant response rating, Ducksalad” value [13, 29]?
**A.** 65

**Q.** And the “Plant response rating, Sedge, Umbrella” value [14, 26]?
**A.** 0

**Q.** What about the “Plant response rating, Sedge, Umbrella” value [14, 27] of the same molecule?
**A.** 0

**Q.** And the “Plant response rating, Sedge, Umbrella” value [14, 28]?
**A.** 50

**Q.** What about the “Plant response rating, Sedge, Umbrella” value [14, 29] of the same molecule?
**A.** 75

**Q.** What about the “Johnsongrass plant response rating” value [15, 18] of the same molecule?
**A.** 100

**Q.** What about the “Johnsongrass plant response rating” value [15, 19] of the same molecule?
**A.** 100

**Q.** What about the “Plant response rating, Johnsongrass” value [15, 20] of the same molecule?
**A.** 85

**Q.** And the “Johnsongrass plant response rating” value [15, 21]?
**A.** 100

**Q.** And the “Corn plant response rating” value [16, 18]?
**A.** 70

**Q.** What about the “Corn plant response rating” value [16, 19] of the same molecule?
**A.** 95

**Q.** What about the “Plant response rating, Corn” value [16, 20] of the same molecule?
**A.** 50

**Q.** And the “Corn plant response rating” value [16, 21]?
**A.** 98

**Q.** What about the “Plant response rating, Corn” value [17, 22] of the same molecule?
**A.** 60

**Q.** What about the “Corn plant response rating” value [17, 23] of the same molecule?
**A.** 80

**Q.** What about the “Corn plant response rating” value [17, 24] of the same molecule?
**A.** 50

**Q.** And the “Corn plant response rating” value [17, 25]?
**A.** 90
